Source: US20080193374A1, “Liposomes Enclosing a Radionuclide and a Cytotoxic Agent for Combination Therapy” (priority 2004, published 2008)

Assays:
[1] = system: OHS osteosarcoma xenografts; assay: Tissue distribution of 223Ra in Caelyx liposomes, nude mice with OHS osteosarcoma xenografts (Example 2); type: in vivo
Method: 10 nude mice were prepared with OHS osteosarcoma xenografts. Each mouse was trated subcutaneously with one dose of 375 kBq/kg of 223Ra encapsulated in Caelyx lipsomes as prepared in Example 1.
After 1 hour, one day and four days, three, three and four animals were sacrificed respectively and the tissue distribution of radioactive material was measured.
The distribution of radionuclide was also compared with a control in which the radium was administered as a salt in a solution of liposomes but not encapsulated thereby.

[2] = Main biodistribution and blood clearance study with four days pre-treatment; liposomal vs free 223Ra (Example 4); type: in vivo, Balb/C mice; conditions: i.v.
Method: In the main study, the mice were divided into four different groups. Each group consisted of 6-7 animals of both sexes. […] One mouse in each of groups two, three and four, were left untreated and were used to measure possible reuptake of the product from faeces or the bedding.
Blood was withdrawn, the mice were euthanised and the radioactivity measurements were performed in the same manner as in Example 3, 1 hour, 24 hours, 6 days and 14 days post injection for the respective groups of mice.
To study the difference between liposomally encapsulated and free ^223Ra, a group of mice was injected intravenously with dissolved ^223RaCl.

Which clearance from blood [1] does the source give for `[Cl][223Ra][Cl]` [free ^223Ra, ^223RaCl] here?
The clearance from blood was “rapid clearance”.

And the “half-life (T1/2) circulating in the blood” value [2]?
The value was “less than 1 hours”.
